Reference: ChEMBL document CHEMBL1201862, “PubChem BioAssay data set” (2004)
Activity calls are given as the source filed them.

Legend:
INS1 [1] = experiment: beta-cell survival under cytokine stress – INS-1E, ATP luminescence, dry powder, dose response (AID 488844); type: functional, cell-based; conditions: Rattus norvegicus
INS1 [2] = experiment: suppression of NO production in INS-1E cells – cell-based, Griess absorbance, dry powder, set 2, dose response (AID 488868); type: functional; conditions: Rattus norvegicus
INS1 [3] = experiment: INS-1E mitochondrial potential rescue under cytokines – cell-based, JC-1 fluorescence ratio, dry powder, dose response (AID 488931); type: functional; conditions: Rattus norvegicus
HEK293 [4] = experiment: HEK293T cell viability loss, resazurin readout – resazurin fluorescence, cytotoxicity control for NF-kB activator project, SAR follow-up (AID 493251); type: functional, cell-based; conditions: Homo sapiens
Jurkat = experiment: SAR Analysis of small molecule inhibitors of T-cell specific antigen receptor-induced NF-kB activation in a Jurkat cell line using a luminescence assay - Set 2. [Related pubchem assays (depositor defined):AID435003, AID435012, AID465]; type: functional, cell-based; conditions: Homo sapiens
HEK293 [5] = experiment: SAR Analysis of small molecule inhibitors of T-cell specific antigen receptor-induced NF-kB activation in a HEK-293T cell line using a luminescence assay - Set 2. [Related pubchem assays (depositor defined):AID435003, AID435012, AID489026]; type: functional, cell-based; conditions: Homo sapiens
INS1 [6] = experiment: INS-1E mitochondrial potential loss inhibitors – cell-based, JC-1 fluorescence, dry powder, set 2, dose response (AID 488867); type: functional; conditions: Rattus norvegicus
[7] = NIH-3T3 fibroblast cytotoxicity, dose response, cytotoxicity control, cell-based, fluorescence, Alamar Blue, secondary assay (AID 2327); type: functional;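 note: NIH-3T3 mouse fibroblasts cultured with fluconazole at 8 µg/mL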
[8] = fluconazole-exposed Candida albicans growth modulators – fluorescence, retest, confirmation (AID 2467); type: functional, cell-based
[9] = Trypanosoma cruzi growth suppression in host cells – NIH3T3 host cells, beta-gal luminescence, confirmation (AID 2044); type: functional, cell-based;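 note: intracellular parasites grown in NIH/3T3 mouse fibroblasts as host cells; luminescent beta-galactosidase reporter signal from transgenic T. cruzi replicating inside host cells; inhibitors lower the luminescence signal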
[10] = target: Serine/threonine-protein phosphatase (Candida dubliniensis (strain CD36 / CBS 7987 / NCPF 3949 / NRRLY-17841) (Yeast), UniProt B9W6M3); experiment: blockers of CaCl2-induced CDRE-lacZ signaling – S. cerevisiae, luminescence, secondary, dose response (AID 2388); type: functional, cell-based;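 note: yeast reporter cells carrying a calcineurin-responsive lacZ construct stimulated with calcium chloride; luminescent beta-galactosidase reporter signal in whole cells rather than isolated phosphatase activity; potency for inhibition where a drop in reporter signal means calcineurin blockade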
[11] = NIH3T3 cell viability loss – ATP luminescence, mouse fibroblasts, counter-screen, dose response (AID 2010); type: functional, cell-based;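 note: cells exposed to compound for about 90 hours before reading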
[12] = target: T1, Microphthalmia-associated transcription factor (Homo sapiens, UniProt O75030); experiment: reducers of TRPM1 reporter luminescence, concentration series – cell-based, SK-MEL-5, cherry-picked, set 3, MITF inhibitor project, dose response (AID 493073); type: functional;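 note: SK-MEL-5 melanoma cells with luciferase driven by the MITF target TRPM1 promoter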
T1 sequence (O75030 whole entry): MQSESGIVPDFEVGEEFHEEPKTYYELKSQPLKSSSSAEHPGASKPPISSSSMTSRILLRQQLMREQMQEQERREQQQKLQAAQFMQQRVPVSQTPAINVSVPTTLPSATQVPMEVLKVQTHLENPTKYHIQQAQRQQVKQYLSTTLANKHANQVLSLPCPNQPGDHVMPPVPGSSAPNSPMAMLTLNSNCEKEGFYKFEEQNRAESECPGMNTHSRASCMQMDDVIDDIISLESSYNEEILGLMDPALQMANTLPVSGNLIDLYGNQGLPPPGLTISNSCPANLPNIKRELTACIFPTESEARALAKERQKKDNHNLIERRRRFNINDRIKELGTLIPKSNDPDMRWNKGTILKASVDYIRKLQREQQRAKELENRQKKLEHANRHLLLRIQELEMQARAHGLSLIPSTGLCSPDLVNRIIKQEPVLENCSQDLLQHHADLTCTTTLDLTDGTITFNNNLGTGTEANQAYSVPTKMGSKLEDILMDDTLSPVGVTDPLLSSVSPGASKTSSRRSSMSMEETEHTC

INS1 [13] = experiment: INS-1E survival protection against cytokine death – cell-based, luminescence, retest, dose response (AID 449756); type: functional; conditions: Rattus norvegicus;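 note: cell death triggered by IL-1 beta plus TNF-alpha plus IFN-gamma mixture; protective hits raise ATP signal compared with cytokine alone wells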
[14] = target: ATP-dependent molecular chaperone HSP82 (Candida albicans (strain WO-1) (Yeast), UniProt C4YTQ8); experiment: steroid-induced GRE reporter decrease in yeast – S. cerevisiae, luminescence, Hsp90 inhibitor project, dose response (AID 2400); type: functional, cell-based;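 note: beta-galactosidase luminescence from glucocorticoid response element reporter as proxy for Hsp90 function; inhibitor potency where signal loss means Hsp90 inhibition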
Large T antigen = Large T antigen (Simian virus 40, UniProt P03070); type: functional, Betapolyomavirus macacae;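 note: Confirmatory-stage PubChem screen for compounds that inhibit SV40 T antigen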
[15] = target: T2, Kappa-type opioid receptor (Homo sapiens, UniProt P41145); type: functional
Beta-galactosidase = Beta-galactosidase (Escherichia coli, UniProt Q8VNN2); type: functional
[16] = target: T2, Kappa-type opioid receptor; type: functional; remark: listed apart in the source
CHO = CHO cell viability loss, potency – luminescence, cytotoxicity control for TLR9-MyD88 binding inhibitor project, dose response (AID 588339); type: functional, cell-based, hamster; conditions: Cricetulus griseus;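 note: CHO cells stably coexpressing TLR9 and MyD88 fusions from primary screen; compound exposure lasted 48 hours before viability readout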
Beta Lactamase [17] = target: T3, Beta Lactamase (Pseudomonas aeruginosa, UniProt Q932Y6); experiment: BLA reporter interference, concentration series – BLA reporter cells, FRET fluorescence, artefact control for TLR9-MyD88 binding inhibitor project, dose response (AID 588341); type: cell-based;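 note: cell based assay in CHO-K1 cells stably expressing beta-lactamase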
[18] = Fluorescence-based cell-based high throughput dose response assay for inhibitors of the interaction of nucleotide-binding oligomerization domain containing 2 (NOD2) and the receptor-interacting serine-threonine kinase 2 (RIPK2).; type: functional; conditions: Homo sapiens
Beta Lactamase [19] = target: T3, Beta Lactamase; experiment: BLA reporter interference, concentration series – BLA reporter cells, FRET fluorescence, artefact control for NOD2-RIPK2 interaction inhibitor project, dose response (AID 651552); type: functional, cell-based
[20] = viability loss in HeLa cells – cytotoxicity control for MgcRacGAP inhibitor project, dose response (AID 624300); type: functional
[21] = target: T4, Rac GTPase-activating protein 1 (Homo sapiens, UniProt Q9H0H5); experiment: blockers of MgcRacGAP-driven Rac1 GTP hydrolysis – biochemical, ADP Hunter fluorescence, primary and confirmatory, confirmation (AID 624330); type: functional
T4 sequence (Q9H0H5 whole entry): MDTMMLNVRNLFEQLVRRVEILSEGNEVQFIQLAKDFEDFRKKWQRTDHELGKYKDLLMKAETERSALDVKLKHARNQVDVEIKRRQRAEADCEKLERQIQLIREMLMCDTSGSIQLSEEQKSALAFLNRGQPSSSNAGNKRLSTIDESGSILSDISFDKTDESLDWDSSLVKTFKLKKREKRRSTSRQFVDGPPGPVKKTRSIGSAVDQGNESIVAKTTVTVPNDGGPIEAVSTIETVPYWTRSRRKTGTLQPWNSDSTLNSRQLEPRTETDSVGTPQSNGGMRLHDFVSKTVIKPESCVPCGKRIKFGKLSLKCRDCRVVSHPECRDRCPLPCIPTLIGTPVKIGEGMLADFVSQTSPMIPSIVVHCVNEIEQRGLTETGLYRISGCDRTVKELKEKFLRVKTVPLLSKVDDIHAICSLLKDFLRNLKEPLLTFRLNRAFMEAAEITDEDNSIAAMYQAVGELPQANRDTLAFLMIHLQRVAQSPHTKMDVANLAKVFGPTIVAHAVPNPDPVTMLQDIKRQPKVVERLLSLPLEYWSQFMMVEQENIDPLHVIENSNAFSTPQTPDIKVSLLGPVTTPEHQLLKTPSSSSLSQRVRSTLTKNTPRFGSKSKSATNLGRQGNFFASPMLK

HSP90 = HSP90 (Plasmodium falciparum 3D7, UniProt Q8IL32); type: functional, organism-based
[22] = luciferase inhibitors in kinase-free ADP detection – biochemical, luminescence, cherry-pick, set 02, artefact control for Dyrk1A inhibitor project, dose response (AID 588348)
[23] = target: T5, RNA-binding protein pos-1 (Caenorhabditis elegans, UniProt G5EF15); experiment: disruptors of C. elegans POS-1 RNA interaction – biochemical, fluorescence polarization, dose response (AID 1964);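 note: purified POS-1 fused to maltose binding protein made in E. coli; potency of compounds blocking POS-1 binding to fluorescent RNA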
T5 sequence (G5EF15 whole entry): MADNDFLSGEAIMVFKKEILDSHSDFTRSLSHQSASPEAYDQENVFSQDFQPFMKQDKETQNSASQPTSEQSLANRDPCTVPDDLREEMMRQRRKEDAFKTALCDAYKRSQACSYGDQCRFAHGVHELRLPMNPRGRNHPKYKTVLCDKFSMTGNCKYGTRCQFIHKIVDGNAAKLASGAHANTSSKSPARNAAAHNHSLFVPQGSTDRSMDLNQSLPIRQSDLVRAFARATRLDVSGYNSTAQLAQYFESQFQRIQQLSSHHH

[24] = target: T6, Zinc finger protein mex-5 (Caenorhabditis elegans, UniProt Q9XUB2); experiment: potency of MEX-5 RNA-binding blockers – biochemical, C. elegans, fluorescence polarization, dose response (AID 1960)
T6 sequence (Q9XUB2 whole entry): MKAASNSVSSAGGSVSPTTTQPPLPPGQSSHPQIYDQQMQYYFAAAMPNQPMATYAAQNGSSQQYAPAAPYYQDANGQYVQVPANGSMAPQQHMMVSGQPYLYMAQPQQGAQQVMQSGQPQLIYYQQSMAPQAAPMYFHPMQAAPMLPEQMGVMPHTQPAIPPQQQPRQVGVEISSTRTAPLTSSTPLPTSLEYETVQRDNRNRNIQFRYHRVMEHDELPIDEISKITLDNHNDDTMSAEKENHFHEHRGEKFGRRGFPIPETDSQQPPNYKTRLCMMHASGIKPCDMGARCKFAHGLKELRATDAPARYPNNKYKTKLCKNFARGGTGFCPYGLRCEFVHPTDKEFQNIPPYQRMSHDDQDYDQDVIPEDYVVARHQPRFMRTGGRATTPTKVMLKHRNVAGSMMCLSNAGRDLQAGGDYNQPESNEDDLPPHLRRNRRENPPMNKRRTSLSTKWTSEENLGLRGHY

[25] = target: Apoptotic protease-activating factor 1 (Homo sapiens, UniProt O14727); type: functional
A-375 = experiment: proliferation inhibition in MITF-low A375 cells – cell-based, cherry-pick samples, set 2, counter-screen for MITF modulator project, dose response (AID 540335); type: functional; conditions: Homo sapiens
[26] = target: Beta-2 adrenergic receptor (Homo sapiens, UniProt P07550); experiment: ADRB2 activation measured by internalization – cell-based, FAP fluorogen, flow cytometry, cherry pick 1, dose response (AID 588763); type: functional
Chain of Beta-2 adrenergic receptor (P07550 whole entry): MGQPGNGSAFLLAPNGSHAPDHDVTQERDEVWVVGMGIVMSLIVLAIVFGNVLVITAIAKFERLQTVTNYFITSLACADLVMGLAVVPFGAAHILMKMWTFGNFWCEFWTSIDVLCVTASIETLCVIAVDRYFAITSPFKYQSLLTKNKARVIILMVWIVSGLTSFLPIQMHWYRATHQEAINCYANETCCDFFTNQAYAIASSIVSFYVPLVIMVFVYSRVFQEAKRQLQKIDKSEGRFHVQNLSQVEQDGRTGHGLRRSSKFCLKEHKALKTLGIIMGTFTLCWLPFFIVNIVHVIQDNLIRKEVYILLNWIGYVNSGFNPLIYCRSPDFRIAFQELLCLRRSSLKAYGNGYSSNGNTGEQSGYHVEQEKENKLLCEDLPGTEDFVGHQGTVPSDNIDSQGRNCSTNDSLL

T3 sequence (Q932Y6 whole entry, the tested form may be a part): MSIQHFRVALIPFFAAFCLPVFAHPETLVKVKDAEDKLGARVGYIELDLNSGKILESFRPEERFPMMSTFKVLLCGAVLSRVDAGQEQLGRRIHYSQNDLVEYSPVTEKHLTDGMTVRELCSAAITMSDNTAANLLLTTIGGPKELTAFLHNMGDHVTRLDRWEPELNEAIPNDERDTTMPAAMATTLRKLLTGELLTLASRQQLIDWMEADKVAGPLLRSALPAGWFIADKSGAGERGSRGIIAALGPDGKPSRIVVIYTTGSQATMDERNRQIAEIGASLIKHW
T2 sequence (P41145 whole entry): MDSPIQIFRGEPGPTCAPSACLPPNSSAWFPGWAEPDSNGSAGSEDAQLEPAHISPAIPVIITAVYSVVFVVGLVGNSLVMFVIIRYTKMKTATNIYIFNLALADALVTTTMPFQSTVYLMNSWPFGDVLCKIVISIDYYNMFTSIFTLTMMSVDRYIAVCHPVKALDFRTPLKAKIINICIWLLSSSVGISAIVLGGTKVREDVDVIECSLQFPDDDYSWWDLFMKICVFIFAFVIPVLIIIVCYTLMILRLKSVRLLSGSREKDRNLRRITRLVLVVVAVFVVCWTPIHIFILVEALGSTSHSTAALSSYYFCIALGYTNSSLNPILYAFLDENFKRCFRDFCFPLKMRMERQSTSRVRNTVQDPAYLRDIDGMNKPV
Chain of Apoptotic protease-activating factor 1 (O14727 whole entry): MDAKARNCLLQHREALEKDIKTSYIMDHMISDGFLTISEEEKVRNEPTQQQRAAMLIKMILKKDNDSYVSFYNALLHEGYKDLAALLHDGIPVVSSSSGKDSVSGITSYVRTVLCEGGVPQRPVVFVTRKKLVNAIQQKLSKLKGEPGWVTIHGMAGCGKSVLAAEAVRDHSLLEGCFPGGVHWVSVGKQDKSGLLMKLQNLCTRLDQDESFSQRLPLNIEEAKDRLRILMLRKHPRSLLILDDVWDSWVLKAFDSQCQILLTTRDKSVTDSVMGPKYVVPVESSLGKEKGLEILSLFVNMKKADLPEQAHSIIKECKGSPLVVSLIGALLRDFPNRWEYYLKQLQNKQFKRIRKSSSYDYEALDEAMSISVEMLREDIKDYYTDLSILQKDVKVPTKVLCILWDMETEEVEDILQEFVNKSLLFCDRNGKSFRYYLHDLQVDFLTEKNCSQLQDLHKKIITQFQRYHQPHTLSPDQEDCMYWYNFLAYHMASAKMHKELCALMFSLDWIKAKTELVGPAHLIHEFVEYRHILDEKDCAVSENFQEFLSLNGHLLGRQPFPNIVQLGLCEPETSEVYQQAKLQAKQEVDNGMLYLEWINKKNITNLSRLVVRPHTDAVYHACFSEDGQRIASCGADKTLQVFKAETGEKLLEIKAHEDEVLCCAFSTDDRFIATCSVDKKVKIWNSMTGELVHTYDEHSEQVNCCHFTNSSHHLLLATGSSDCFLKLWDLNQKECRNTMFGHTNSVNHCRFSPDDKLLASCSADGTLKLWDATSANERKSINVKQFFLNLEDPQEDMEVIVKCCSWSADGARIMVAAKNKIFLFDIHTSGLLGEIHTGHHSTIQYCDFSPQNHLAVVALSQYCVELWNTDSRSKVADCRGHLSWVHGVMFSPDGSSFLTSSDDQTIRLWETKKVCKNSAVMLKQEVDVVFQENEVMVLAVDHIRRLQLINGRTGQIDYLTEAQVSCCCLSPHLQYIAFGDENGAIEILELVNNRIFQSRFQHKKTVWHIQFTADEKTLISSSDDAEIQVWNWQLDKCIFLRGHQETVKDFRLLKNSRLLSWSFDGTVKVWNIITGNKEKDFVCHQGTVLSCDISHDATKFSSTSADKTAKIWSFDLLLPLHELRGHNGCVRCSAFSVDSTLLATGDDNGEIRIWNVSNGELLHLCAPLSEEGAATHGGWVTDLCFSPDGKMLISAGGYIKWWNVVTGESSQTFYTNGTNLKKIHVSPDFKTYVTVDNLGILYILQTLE
Chain of HSP90 (Q8IL32 whole entry): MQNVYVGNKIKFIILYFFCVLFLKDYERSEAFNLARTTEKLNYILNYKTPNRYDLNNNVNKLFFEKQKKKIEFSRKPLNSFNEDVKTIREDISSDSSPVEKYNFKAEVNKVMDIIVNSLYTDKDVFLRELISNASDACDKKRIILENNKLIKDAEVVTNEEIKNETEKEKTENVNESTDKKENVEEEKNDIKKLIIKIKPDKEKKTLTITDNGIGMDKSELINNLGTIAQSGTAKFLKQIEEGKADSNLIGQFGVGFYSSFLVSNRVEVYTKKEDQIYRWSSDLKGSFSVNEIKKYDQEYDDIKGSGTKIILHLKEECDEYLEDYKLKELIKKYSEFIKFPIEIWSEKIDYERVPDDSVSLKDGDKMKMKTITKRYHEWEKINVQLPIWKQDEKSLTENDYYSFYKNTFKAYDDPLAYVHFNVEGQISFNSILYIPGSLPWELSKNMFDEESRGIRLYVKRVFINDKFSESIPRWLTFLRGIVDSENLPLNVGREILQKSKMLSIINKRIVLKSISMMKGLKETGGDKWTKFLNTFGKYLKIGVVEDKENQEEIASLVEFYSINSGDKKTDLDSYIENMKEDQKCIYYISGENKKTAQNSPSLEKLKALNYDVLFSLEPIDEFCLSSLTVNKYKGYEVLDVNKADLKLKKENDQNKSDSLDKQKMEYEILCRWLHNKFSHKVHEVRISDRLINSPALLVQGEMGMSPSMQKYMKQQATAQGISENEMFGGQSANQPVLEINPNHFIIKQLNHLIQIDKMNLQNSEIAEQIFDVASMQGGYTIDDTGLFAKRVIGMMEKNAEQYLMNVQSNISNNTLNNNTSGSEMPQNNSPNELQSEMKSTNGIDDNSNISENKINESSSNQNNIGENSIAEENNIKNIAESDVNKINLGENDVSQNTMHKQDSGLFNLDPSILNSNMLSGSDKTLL
Chain of Beta-galactosidase (Q8VNN2 whole entry): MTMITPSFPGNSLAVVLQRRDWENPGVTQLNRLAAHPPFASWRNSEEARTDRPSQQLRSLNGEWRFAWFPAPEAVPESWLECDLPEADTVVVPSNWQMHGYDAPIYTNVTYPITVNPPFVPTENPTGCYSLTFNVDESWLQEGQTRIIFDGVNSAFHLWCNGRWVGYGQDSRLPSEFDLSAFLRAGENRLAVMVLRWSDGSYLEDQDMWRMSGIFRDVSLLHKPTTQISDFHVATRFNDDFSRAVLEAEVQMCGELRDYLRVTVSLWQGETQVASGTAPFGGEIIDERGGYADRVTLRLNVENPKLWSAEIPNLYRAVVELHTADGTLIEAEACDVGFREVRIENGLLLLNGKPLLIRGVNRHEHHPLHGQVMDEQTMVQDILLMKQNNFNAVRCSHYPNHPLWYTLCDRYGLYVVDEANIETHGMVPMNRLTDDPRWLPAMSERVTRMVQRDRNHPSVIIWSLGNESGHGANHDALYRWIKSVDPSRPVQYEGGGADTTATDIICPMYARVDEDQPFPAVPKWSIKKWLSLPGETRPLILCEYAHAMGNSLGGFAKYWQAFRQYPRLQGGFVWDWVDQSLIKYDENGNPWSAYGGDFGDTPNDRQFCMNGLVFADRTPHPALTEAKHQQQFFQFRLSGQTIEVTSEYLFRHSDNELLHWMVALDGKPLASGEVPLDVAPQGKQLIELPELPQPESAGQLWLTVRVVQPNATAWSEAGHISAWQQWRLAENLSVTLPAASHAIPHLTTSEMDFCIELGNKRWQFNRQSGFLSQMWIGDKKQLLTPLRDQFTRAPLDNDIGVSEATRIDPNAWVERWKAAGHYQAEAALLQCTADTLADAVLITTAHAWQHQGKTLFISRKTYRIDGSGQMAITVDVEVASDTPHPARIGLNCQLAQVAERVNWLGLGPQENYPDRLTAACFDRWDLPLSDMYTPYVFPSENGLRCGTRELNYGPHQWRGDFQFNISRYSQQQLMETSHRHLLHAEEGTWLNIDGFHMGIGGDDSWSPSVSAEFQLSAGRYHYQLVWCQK
Chain of Serine/threonine-protein phosphatase (B9W6M3 whole entry): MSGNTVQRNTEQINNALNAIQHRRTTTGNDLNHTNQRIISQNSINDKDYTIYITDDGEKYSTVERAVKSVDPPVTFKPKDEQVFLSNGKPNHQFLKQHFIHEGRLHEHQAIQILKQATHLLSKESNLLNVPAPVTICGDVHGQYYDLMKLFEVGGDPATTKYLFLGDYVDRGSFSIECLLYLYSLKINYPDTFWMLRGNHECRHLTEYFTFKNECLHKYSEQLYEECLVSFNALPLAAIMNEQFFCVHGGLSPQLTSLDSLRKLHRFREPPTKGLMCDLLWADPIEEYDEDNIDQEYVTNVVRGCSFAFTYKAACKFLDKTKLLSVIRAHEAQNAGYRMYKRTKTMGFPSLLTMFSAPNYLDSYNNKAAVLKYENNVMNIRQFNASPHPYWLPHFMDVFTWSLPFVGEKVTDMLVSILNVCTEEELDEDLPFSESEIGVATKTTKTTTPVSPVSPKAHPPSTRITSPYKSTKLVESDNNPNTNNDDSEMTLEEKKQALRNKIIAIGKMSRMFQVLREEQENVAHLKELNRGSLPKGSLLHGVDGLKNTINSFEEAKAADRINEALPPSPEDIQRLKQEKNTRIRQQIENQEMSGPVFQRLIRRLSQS

Cc1ccc(S(=O)(=O)N(C)C[C@@H]2Oc3c(NC(=O)Nc4cccc5ccccc45)cccc3C(=O)N([C@H](C)CO)C[C@H]2C)cc1
AC50 (INS1 [1]): > 235 µM (inactive)
AC50 (INS1 [2]): 30.3 µM (active)
AC50 (INS1 [3]): 61.1 µM (active)

COc1cc(NC(=O)c2ccc3c(c2)OCO3)ccc1NC(=O)c1cc2ccccc2o1
IC50 (HEK293 [4]): > 80 µM (inactive)
IC50 (Jurkat): > 79 µM (inactive)
IC50 (HEK293 [5]): > 80 µM (inactive)

COc1ccc(S(=O)(=O)N(C)C[C@@H]2Oc3c(NC(=O)Nc4ccc(F)cc4)cccc3C(=O)N([C@@H](C)CO)C[C@H]2C)cc1
AC50 (INS1 [1]): 22.8 µM (active)
AC50 (INS1 [6]): 134 µM (active)

CCOc1ccccc1NC(=O)C(=O)N/N=C/c1cc(Br)ccc1O
EC50 [7]: > 160 µM (inactive)
EC50 [8]: 0.358 µM (active)
EC50 [9]: 1.02 µM (active)
EC50 [10]: > 180 µM (inactive)
EC50 [11]: > 60 µM (not active)
AC50 [12]: 3.34 µM (active)
AC50 (INS1 [13]): 1.04 µM (active)
EC50 [14]: > 160 µM (inactive)

N#CC(C#N)=C1C=CC=CN1/C(=C\c1ccco1)C(=O)c1ccc(Br)cc1
IC50 (Large T antigen): 15.5 µM (active)
IC50 [15]: 4.51 µM (active)
EC50 (Beta-galactosidase): > 31.5 µM (inactive)
IC50 [16]: 15.4 µM
AC50 [12]: 5.59 µM (active)
IC50 (CHO): 1.56 µM (active)
IC50 (Beta Lactamase [17]): 13.2 µM (inactive)
AC50 (INS1 [13]): 7.3 µM (active)
IC50 [18]: 0.895 µM (active)
IC50 (Beta Lactamase [19]): 44.7 µM (inactive)
CC50 [20]: 100 µM (active)
IC50 [21]: 88.7 µM (active)

O=C(COc1ccc(Cl)cc1)NC1=NN(c2ccccc2)C(=O)C1
AC50 (HSP90): 32.5 µM (active)

CC(=O)Nc1cccc(C(=O)OCC(=O)c2ccc3c(c2)OCO3)c1
AC50 [22]: 50.2 µM (active)

Cc1ccc(C(=O)N/C(=C\c2ccc(-c3ccccc3[N+](=O)[O-])o2)C(=O)NCCCN(C)C)cc1
EC50 [23]: > 300 µM (inconclusive)
EC50 [24]: 18.6 µM (active)
AC50 [12]: 3.28 µM (active)
IC50 [25]: 70.1 µM (active)
AC50 (A-375): 33.4 µM (active)

CN(c1ccccc1)S(=O)(=O)c1cccc(C(=O)Nc2cccc(C(=O)NC3CC3)c2)c1
EC50 [26]: 0.575 µM (active)
